Results on five compounds are retold here after patent publication US4618610A, “Triazine derivatives, and pharmaceutical compositions comprising the same” (Fujisawa Pharmaceutical Co., Ltd., priority 1983, dated 1986).

SMILES strings stand for the structures. Where two headings read alike, the source gives them in different places.

In one assay the test system is blood pressure. Description: Test method A: antihypertensive activity, oral, in uninephrectomized DOCA/saline rats. The conditions noted are these: orally, DOCA rats, mean arterial pressure. The format is in vivo, rat (Wister). On the procedure:
Five-week old male Wister rats were uninephrectomized under anesthesia. Deoxycorticosterone […] (DOCA) (30 mg/kg), suspended in peanut oil, was injected subcutaneously twice a week and 1% saline was substituted for the drinking water. Animals with mean blood pressure 150-200 mmHg were used for experiment between 5 and 7 weeks after surgery.
The test compounds were administered orally.
Blood pressure was measured at the femoral artery by means of a pressure transducer and recorded as electrically integrated values of mean arterial pressure.
a: The test compound were administered orally in a dose of 1 mg/kg.
b: The test compound were administered orally in dose of 0.1 mg/kg.

Another assay relates to platelet. Put plainly: Test Method B: inhibition of platelet aggregation in platelet rich plasma. Type of assay: cell-based. As to conditions: Oryctolagus cuniculus, rabbit PRP, 37° C. On the procedure:
Platelet rich plasma (PRP) which contains 6.5-7.5×10^8 platelet/ml was prepared from rabbit blood. To the 200 ul of PRP, 5 μl of calcium chloride (1 mM) and 50 μl of pH 7.4 Tris-acetate solution (5 mM) containing 120 mM NaCl and test compound were added successively, and then stirred for 2 min. at 37° C. To the solution, 5 μl of adenosine diphosphate (ADP) (2.5 μM) or collagen (2.5 ug/ml) was added as an aggregation inducer. Aggregation was measured by using an aggregometer (NKK HEMA TRACER 1).

The next assay deals with ethanol ulcer. Put plainly: Test methods C: ethanol ulcer (antiulcer activity). The conditions noted are these: 32 mg/kg orally, 30 minutes before absolute ethanol (5 ml/kg). The format is in vivo, rat (Sprague-Dawley). How it is done:
Five male Sprague-Dawley rats, aged 7 weeks and weighing about 200 g, were used per group for the study on ethanol ulcer after the fast for 24 hours.
Test compound was suspended in 0.1% methylcellulose aqueous solution, and the suspension (5 ml/kg) was orally given to each rat.
The control group was given a vehicle, i.e. 0.1% methylcellulose aqueous solution (5 ml/kg), alone in the same way.
Absolute ethanol (5 ml/kg) was orally administered 30 minutes after dosing with test compound, and one hour later, the rats were sacrificed and their stomachs were removed. The area of ulcers of each rat was measured. The mean area (mm^2) in the medicated group was compared with that in the control group.

The mark [1] stands for this setting: ADP (2.5 μM) as aggregation inducer, read-out: ID50 ADP (platelet aggregation).
Setting [2] is: collagen (2.5 ug/ml) as aggregation inducer, read-out: ID50 Collagen (platelet aggregation).

`CC(=O)Nc1ccc(C2=NNC(=O)NC2C)cc1` (stereo not shown) [Example 1-(3), 6-(4-acetamidophenyl)-5-methyl-4,5-dihydro-1,2,4-triazin-3(2H)-one]: the “Effect Max (mean ratio of maximum decrease of blood pressure)” value is 48.9% in the assay with blood pressure (dose a: 1 mg/kg) and 19.2% in the assay on blood pressure (dose b: 0.1 mg/kg). Besides, the values for the IC50 in the assay with platelet (setting [1]) and with platelet (setting [2]) were 620 nM and 220 nM, respectively.

For the compound `CNC(=O)Nc1ccc(C2=NNC(=O)NC2C)cc1` (stereo not shown) [Example 6, 6-[4-(3-methylureido)phenyl]-5-methyl-4,5-dihydro-1,2,4-triazin-3(2H)-one], the “Effect Max (mean ratio of maximum decrease of blood pressure)” value in the assay on blood pressure (dose a: 1 mg/kg) is listed as 43.1%; in the assay on blood pressure (dose b: 0.1 mg/kg), 6.6%. In addition, the IC50 in the assay with platelet (setting [1]) came out at 740 nM; with platelet (setting [2]), 410 nM.

For the compound `CC(=O)Nc1ccc(C2=NNC(=S)NC2C)cc1` (stereo not shown) [Example 23-(3), 6-(4-acetamidophenyl)-5-methyl-4,5-dihydro-1,2,4-triazin-3(2H)-thione], in the assay on ethanol ulcer, the “Effect (mean ulcer area compared with control group)” value was determined as 87.0%.

With `CCOC(=O)Nc1ccc(C2=NNC(=O)NC2C)cc1` (stereo not shown) [Example 24-(4), 6-(4-Ethoxycarbonylaminophenyl)-5-methyl-4,5-dihydro-1,2,4-triazin-3(2H)-one], the “Effect Max (mean ratio of maximum decrease of blood pressure)” value in the assay with blood pressure (dose a: 1 mg/kg) turned out to be 54.5%; with blood pressure (dose b: 0.1 mg/kg), 28.6%. Also, the IC50 turned out to be 380 nM in the assay with platelet (setting [1]) and 69 nM with platelet (setting [2]).

In the case of `CC1NC(=O)NN=C1c1ccc(NC(=O)C2CC2)cc1` (stereo not shown) [Example 24-(10), 6-(4-Cyclopropanecarbonylaminophenyl)-5-methyl-4,5-dihydro-1,2,4-triazin-3(2H)-one], the “Effect Max (mean ratio of maximum decrease of blood pressure)” value in the assay with blood pressure (dose b: 0.1 mg/kg) was 41.1%. Further, the IC50 in the assay on platelet (setting [1]) is 34 nM; in the assay with platelet (setting [2]), 3.1 nM.
